Test results reported in US6372209B1, “Vaginal lactobacillus medicant” (Gyne Logix, Inc., priority 1997, dated 2002).

What was measured:
[1] = Accelerated shelf-life of the air-dried suppository at 35, 45 and 55° C.; format: physicochemical; conditions: for loss of viability: over about 2.3 days
Method: Strain CTV-05 was tested in a gelatin capsule suppository during storage at 55° C., 45° C., 35° C. and at room and refrigeration temperatures. […] Between the fourth and ninth weeks counts dropped to 9.8×10^7 per suppository and have remained at 10^7 for 25 months.
At 35° C., the product lost less than 1 log of viability over about 2.3 days. At 45° C., the product lost about 2 logs of viability over about 2.3 days. At 55° C., the product lost viability rapidly within 0.5 days.

[2] = Cell to preservation matrix ratio: viability counts pre- and post-dry; format: physicochemical; conditions: 30 microliter aliquots
Method: Experiments were conducted to determine the preservative capacity of the suspending medium by addition of different amounts of cells of strain CTV-05 per volume of medium. The Lactobacilli were grown anaerobically on 2 inch squares on MRS agar plates. A 2-inch square of agar is the equivalent of 10 ml of broth. The anticipated yield per plate was 2×10^9 CFUs. Inoculated matrix was preserved in aliquots of 30 microliters.

H2O2 production = assay: Production of H2O2 (TMB medium or EM strips); conditions: gelatin capsule suppository, storage period up to 25 months
Method: (1.4) Production of H2O2: Strains were inoculated onto tetramethylbenzidine medium (TMB) and incubated at 37° C. for 2-3 days under anaerobic conditions. H2O2-producing colonies produce a blue pigment upon exposure to ambient air. Alternatively, H2O2-detecting strips from EM Science were used. The reagent impregnated portion of the strip was applied to a Lactobacillus colony and the intensity of the resulting blue color served as a quantitative measure of H2O2 concentration.

[3] = Purity and genetic fingerprint (Rep PCR) of suppository lots
Method: (1.1) Purity of the strain: The purity of the suppository strain (i.e., lack of presence of contaminating organisms in a culture) was confirmed by specifically distinguishing the suppository strain from other strains using DNA fingerprinting techniques. DNA fingerprinting was performed by Repetitive Sequence Polymerase Chain Reaction (Rep PCR). In order to determine whether the Rep PCR method could distinguish the suppository strain (CTV-05) from endogenous L. crispatus, 40 strains of L. crispatus were recovered from the vagina of women of child-bearing age and compared to CTV-05. L. crispatus species identity was determined using whole chromosomal DNA homology to control strain L. crispatus ATCC 33197. […] The suppository strain (CTV-05) was distinguished from the others by four bands in the 2500-1500 base pair region. In this region, the CTV-05 fingerprint consists of intense bands at 2500 and 1500 and less amplified bands at 2000 and 1736 base pairs (data not shown).
Six different lots of L. crispatus CTV-05 prepared over a 2 year period were evaluated for purity and stability of the genetic fingerprint. […] Further, there has been no lot-to-lot variability in the “fingerprint” of the DNA of the suppository strain (data not shown).

normal, healthy women = assay: Open study: vaginal colonization of healthy women by suppository; format: in vivo, human
Excerpt: In this open study, a Lactobacillus suppository containing approximately 10^9 viable, H2O2-producing Lactobacillus crispatus CTV-05 was used by 9 women twice daily for three days. All 9 women were free of genital infection at enrollment, and 8 of the 9 women had endogenous Lactobacilli at enrollment.
Since many women are colonized vaginally and rectally by Lactobacilli, the technique, Repetitive Sequence Polymerase Chain Reaction (Rep PCR), was used to “fingerprint” the suppository strain of L. crispatus and thereby distinguish the suppository strain from endogenous strains of Lactobacilli.

[4] = 4 plates/5 ml matrix, 24 hr. Growth Period
[5] = 4 plates/5 ml matrix, 48 hr. Growth Period
[6] = 6 plates/5 ml matrix, 24 hr. Growth Period
[7] = 6 plates/5 ml matrix, 48 hr. Growth Period
[8] = 8 plates/5 ml matrix, 24 hr. Growth Period
[9] = 8 plates/5 ml matrix, 48 hr. Growth Period
[10] = 10 plates/5 ml matrix, 24 hr. Growth Period
[11] = 10 plates/5 ml matrix, 48 hr. Growth Period

## Lactobacillus crispatus CTV-05
[1]; 35° C.
  loss of viability: less than 1 log
[1]; 45° C.
  loss of viability: about 2 logs
[1]; 55° C.
  time within which viability was rapidly lost: ≤ 0.5 days
[2]; [4]
  Actual Yields, Post-dry: 1.1 × 10^7 CFUs
  Actual Yields, Pre-dry: 7.9 × 10^7 CFUs
[2]; [5]
  Actual Yields, Post-dry: 6.1 × 10^8 CFUs
  Actual Yields, Pre-dry: 6.0 × 10^8 CFUs
[2]; [6]
  Actual Yields, Post-dry: 2.1 × 10^7 CFUs
  Actual Yields, Pre-dry: 1.9 × 10^8 CFUs
[2]; [7]
  Actual Yields, Post-dry: 3.0 × 10^8 CFUs
  Actual Yields, Pre-dry: 7.8 × 10^8 CFUs
[2]; [8]
  Actual Yields, Post-dry: 3.6 × 10^7 CFUs
  Actual Yields, Pre-dry: 6.9 × 10^7 CFUs
[2]; [9]
  Actual Yields, Post-dry: 4.3 × 10^8 CFUs
  Actual Yields, Pre-dry: 9.8 × 10^8 CFUs
[2]; [10]
  Actual Yields, Post-dry: 4.0 × 10^7 CFUs
  Actual Yields, Pre-dry: 6.7 × 10^7 CFUs
[2]; [11]
  Actual Yields, Post-dry: 4.1 × 10^8 CFUs
  Actual Yields, Pre-dry: 1.5 × 10^8 CFUs
H2O2 production
  H2O2 production during storage: remained stable
[3]; six lots prepared over a 2 year period, enriched chopped meat broth, anaerobic
  contaminants in lots: free of contaminants
[3]; small scale and scale-up lots
  genetic fingerprint (Rep PCR) between lots: identical fingerprints
normal, healthy women; 9 women
  inflammation, microscopically (white blood cells on vaginal smear): None of the women had evidence of inflammation
  side effects: none complained of side effects
normal, healthy women; 9 women, approximately 10^9 viable cells twice daily for three days, 2-3 days after last capsule
  women colonized by the suppository strain: all of the women were colonized
normal, healthy women; 9 women, at 1 month
  women remaining colonized: 8 of 9
normal, healthy women; four weeks later
  vaginal colonization, Patient 103: still colonized with CTV-05
normal, healthy women; one month visit
  vaginal colonization, Patient 102: still colonized by L. crispatus CTV-05
normal, healthy women; one week after use twice daily for 3 days
  vaginal colonization, Patient 103: colonized by CTV-05 as well as by another strain of Lactobacilli
normal, healthy women; one week visit after use of the suppository
  vaginal colonization, Patient 102: colonized by three strains of Lactobacilli, which included (1) the suppository strain
normal, healthy women; one year after enrollment
  vaginal colonization, Patient 102: colonized exclusively by the suppository strain
